From patent publication US7125546B2, “Polymeric micelle containing cisplatin enclosed therein and use thereof” (Toudai TLO, Ltd., priority 2000, dated 2006)
Values joined by “and” are separate entries in the source; they are usually repeats but may differ in a detail not shown here. Identical values can stand only once.

How the values were obtained:
[1] = Urea nitrogen (BUN) value in blood plasma 6 days after single caudate vein administration to normal mice (index for nephrotoxicity); details: normal mouse, 6 days after single administration, ratio to non-treated group
Experimental: (§1) In FIG. 5, calculated were duration integrations (up to 17 days since drug treatment) of relative values in a change in a tumor volume and a weight change on a zero day, and the ratios of the drug-treated group to the drug-non-treat group in the values were shown as an antitumor effect and a weight change respectively. Further, the drug was administered once from a caudate vein to a normal C57BL6/N mouse (n=4, male, 6 ages in week) to evaluate a urea nitrogen (BUN) value in blood plasma after 6 days. […] The ratio of the drug-treated group to the drug-non-treat group in this BUN value was calculated as well, and the relative BUN value to the CDDP-equivalent dosage was shown in FIG. 5(C).

[2] = Blood plasma platinum concentration and accumulation of platinum in tumor and principal organs after caudate vein administration to tumor-bearing mice
Experimental: Evaluated were a change in a blood plasma platinum concentration and a change with the passage of time in accumulation of platinum in the principal organs observed when free CDDP and the CDDP-encapsulating micelle were administered from a caudate vein to a C57BL6/N mouse (n=4, male, 6 ages in week) in which Louis pulmonary cancer was subcutaneously transplanted to a hypogastric region, and the results thereof are shown in FIG. 4.

[3] = system: Louis pulmonary cancer; assay: Antitumor effect and weight change after single caudate vein administration to mice with subcutaneously transplanted Louis pulmonary cancer
Experimental: as §1

[4] = 0–24 hours, tissue platinum concentration-time curve

cis-Diaminedichloroplatinum (II) [CDDP]
relative BUN value [1]: rise in the BUN value
Kidney AUC/tumor AUC [2, 4]: 3.9 and 7.7
Liver AUC/tumor AUC [2, 4]: 2.6 and 2.7
Muscle AUC/tumor AUC [2, 4]: 0.13 and 0.17
Spleen AUC/tumor AUC [2, 4]: 0.31 and 0.43
accumulation of platinum in a kidney ([2]; immediately after administration (about 15 minutes)): high accumulation immediately after administration
toxic death ([3]; 12 mg/kg): one mouse out of 3 mice
weight change ([3]; mouse, in vivo): reduction in the weight
antitumor effect ([3]; single caudate vein administration, tumor volume integration up to 17 days, ratio to non-treated group): increase in the antitumor effect
